Data from patent US20260285850A1, “SUBSTITUTED OXAZOLIDINONES AND IMIDAZOLINONES AS HERBICIDES” (FMC CORPORATION, priority 2023, published 2026).

How the values were obtained:
Assay type in all cases: in vivo
[1] = tested on: ryegrass, Italian (italian ryegrass, Lolium multiflorum); experiment: Test A preemergence soil spray, visual injury rating 0-100; conditions: 10 days, 0 = no effect, 100 = complete control
Method in brief: (§1)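 Greenhouse test: loam/sand pots received a surfactant-containing formulation, as a preemergence directed soil spray or a postemergence spray on young plants. Injury was judged visually at day 10 relative to untreated controls.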

kochia (Bassia scoparia) [2] = experiment: as above; conditions: 10 days, 0 = no effect, 100 = complete control
Method in brief: as §1

[3] = tested on: oat, wild (wild oat, Avena fatua); experiment: as above; conditions: 10 days, 0 = no effect, 100 = complete control
Method in brief: as §1

corn (Zea mays) [4] = experiment: as above; conditions: 10 days, 0 = no effect, 100 = complete control
Method in brief: as §1

[5] = tested on: ragweed (common ragweed, Ambrosia artemisiifolia); experiment: as above; conditions: 10 days, 0 = no effect, 100 = complete control
Method in brief: as §1

soybean (Glycine max) [6] = experiment: as above; conditions: 10 days, 0 = no effect, 100 = complete control
Method in brief: as §1

[7] = tested on: blackgrass (Alopecurus myosuroides); experiment: as above; conditions: 10 days, 0 = no effect, 100 = complete control
Method in brief: as §1

[8] = tested on: green foxtail (Setaria viridis); experiment: as above; conditions: 10 days, 0 = no effect, 100 = complete control
Method in brief: as §1

[9] = tested on: palmer (palmer amaranth, palmer pigweed, Amaranthus palmeri); experiment: as above; conditions: 10 days, 0 = no effect, 100 = complete control
Method in brief: as §1

[10] = tested on: barnyardgrass (Echinochloa crus-galli); experiment: as above; conditions: 10 days, 0 = no effect, 100 = complete control
Method in brief: as §1

[11] = tested on: wheat (Triticum aestivum); experiment: as above; conditions: 10 days, 0 = no effect, 100 = complete control
Method in brief: as §1

[12] = tested on: ryegrass, Italian (italian ryegrass, Lolium multiflorum); experiment: Test A postemergence application, visual injury rating 0-100; conditions: 10 days
Method in brief: as §1

kochia (Bassia scoparia) [13] = experiment: as above; conditions: 10 days
Method in brief: as §1

[14] = tested on: oat, wild (wild oat, Avena fatua); experiment: as above; conditions: 10 days
Method in brief: as §1

[15] = tested on: galium (catchweed bedstraw, Galium aparine); experiment: as above; conditions: 10 days
Method in brief: as §1

corn (Zea mays) [16] = experiment: as above; conditions: 10 days
Method in brief: as §1

[17] = tested on: ragweed (common ragweed, Ambrosia artemisiifolia); experiment: as above; conditions: 10 days
Method in brief: as §1

soybean (Glycine max) [18] = experiment: as above; conditions: 10 days
Method in brief: as §1

[19] = tested on: blackgrass (Alopecurus myosuroides); experiment: as above; conditions: 10 days
Method in brief: as §1

[20] = tested on: horseweed (Erigeron canadensis); experiment: as above; conditions: 10 days
Method in brief: as §1

[21] = tested on: green foxtail (Setaria viridis); experiment: as above; conditions: 10 days
Method in brief: as §1

[22] = tested on: palmer (palmer amaranth, palmer pigweed, Amaranthus palmeri); experiment: as above; conditions: 10 days
Method in brief: as §1

[23] = tested on: barnyardgrass (Echinochloa crus-galli); experiment: as above; conditions: 10 days
Method in brief: as §1

[24] = tested on: wheat (Triticum aestivum); experiment: as above; conditions: 10 days
Method in brief: as §1

rice (Oryza sativa) = experiment: Test B flooded paddy test, visual plant response rating 0-100; conditions: 250 g ai/ha, Flood, applied to paddy water, evaluated after 13 days
Method in brief: (§2)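 Compounds applied to standing paddy water (3 cm above soil, maintained for the test duration) on 2-leaf-stage plants; visual rating vs controls at 13 days, greenhouse.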

[25] = tested on: sedge, umbrella (small-flower umbrella sedge, Cyperus difformis); experiment: as above; conditions: 250 g ai/ha, Flood, applied to paddy water, evaluated after 13 days
Method in brief: as §2

[26] = tested on: barnyardgrass (Echinochloa crusgalli); experiment: as above; conditions: 250 g ai/ha, Flood, applied to paddy water, evaluated after 13 days
Method in brief: as §2

[27] = tested on: ducksalad (Heteranthera limosa); experiment: as above; conditions: 250 g ai/ha, Flood, applied to paddy water, evaluated after 13 days
Method in brief: as §2

[28] = 31 g ai/ha, postemergence, 0 = no effect, 100 = complete control
[29] = Postemergence, 125 g ai/ha, 0 is no effect, 100 is complete control

CC1(C(=O)NC2C=CC(C(=O)OCC(F)(F)F)C2)CN(c2cc(F)cc(F)c2)C(=O)O1 (stereo not shown) [Compound 55]
45: Plant response rating, Sedge, Umbrella (0 to 100 scale, 0 is no effect and 100 is complete control) [25]
90: Ryegrass, Italian plant response rating (0 to 100 scale) ([1]; 125 g ai/ha) | Kochia plant response rating (0 to 100 scale) (kochia (Bassia scoparia) [2]; 125 g ai/ha) | Oat, Wild plant response rating (0 to 100 scale) ([3]; 125 g ai/ha) | Blackgrass plant response rating (0 to 100 scale) ([7]; 125 g ai/ha) | Foxtail, Green plant response rating (0 to 100 scale) ([8]; 125 g ai/ha) | Wheat plant response rating (0-100) ([11]; 31 g ai/ha) | Ryegrass, Italian plant response rating (0-100) [12, 28] | Ryegrass, Italian plant response rating (0 to 100 scale) [12, 29] | Oat, Wild plant response rating (0-100) [14, 28] | Oat, Wild plant response rating (0 to 100 scale) [14, 29] | Amaranth, Palmer / Pigweed, Palmer plant response rating (0 to 100 scale) [22, 29] | Barnyardgrass plant response rating (0-100) [23, 28] | Wheat plant response rating (0 to 100 scale) [24, 29] | Plant response rating, Barnyardgrass (0 to 100 scale, 0 is no effect and 100 is complete control) [26]
100: Barnyardgrass plant response rating (0 to 100 scale) ([10]; 125 g ai/ha) | Wheat plant response rating (0 to 100 scale) ([11]; 125 g ai/ha) | Corn plant response rating (0-100) (corn (Zea mays) [16]; [28]) | Corn plant response rating (0 to 100 scale) (corn (Zea mays) [16]; [29]) | Blackgrass plant response rating (0 to 100 scale) [19, 29] | Barnyardgrass plant response rating (0 to 100 scale) [23, 29]
0: Kochia plant response rating (0-100) (kochia (Bassia scoparia) [2]; 31 g ai/ha) | Ragweed plant response rating (0-100) ([5]; 31 g ai/ha) | Ragweed plant response rating (0 to 100 scale) ([5]; 125 g ai/ha) | Foxtail, Green plant response rating (0-100) ([8]; 31 g ai/ha)
70: Amaranth, Palmer plant response rating (0 to 100 scale) ([9]; 125 g ai/ha) | Soybean plant response rating (0-100) (soybean (Glycine max) [18]; [28]) | Soybean plant response rating (0 to 100 scale) (soybean (Glycine max) [18]; [29]) | Horseweed plant response rating (0-100) [20, 28]
85: Plant response rating, Ducksalad (0 to 100 scale, 0 is no effect and 100 is complete control) [27]
40: Corn plant response rating (0 to 100 scale) (corn (Zea mays) [4]; 125 g ai/ha) | Soybean plant response rating (0-100) (soybean (Glycine max) [6]; 31 g ai/ha)
15: Plant response rating, Rice (0 to 100 scale, 0 is no effect and 100 is complete control) (rice (Oryza sativa))
20: Corn plant response rating (0-100) (corn (Zea mays) [4]; 31 g ai/ha) | Blackgrass plant response rating (0-100) ([7]; 31 g ai/ha) | Amaranth, Palmer plant response rating (0-100) ([9]; 31 g ai/ha) | Barnyardgrass plant response rating (0-100) ([10]; 31 g ai/ha) | Foxtail, Green plant response rating (0-100) [21, 28]
50: Ragweed plant response rating (0-100) [17, 28] | Blackgrass plant response rating (0-100) [19, 28]
80: Ryegrass, Italian plant response rating (0-100) ([1]; 31 g ai/ha) | Soybean plant response rating (0 to 100 scale) (soybean (Glycine max) [6]; 125 g ai/ha) | Kochia plant response rating (0-100) (kochia (Bassia scoparia) [13]; [28]) | Kochia plant response rating (0 to 100 scale) (kochia (Bassia scoparia) [13]; [29]) | Galium plant response rating (0-100) [15, 28] | Galium plant response rating (0 to 100 scale) [15, 29] | Horseweed plant response rating (0 to 100 scale) [20, 29] | Foxtail, Green plant response rating (0 to 100 scale) [21, 29] | Amaranth, Palmer plant response rating (0-100) [22, 28] | Wheat plant response rating (0-100) [24, 28]
60: Oat, Wild plant response rating (0-100) ([3]; 31 g ai/ha) | Ragweed plant response rating (0 to 100 scale) [17, 29]
